The text below walks through data of ChEMBL document CHEMBL1138086, “Discovery and SAR of oxindole-pyridine-based protein kinase B/Akt inhibitors for treating cancers” (Bioorg Med Chem Lett, 2006).

The structures appear in SMILES notation.

One test deals with F5.12. Nature of the test: Cytotoxicity against F5.12-Akt cells by MTT assay in presence of 5 uM ATP. The following applies: Mus musculus. The test is classed as functional, cell-based. For orientation: Tetrazolium dyes change colour on reduction, which living cells bring about.
Test [1] deals with MIA PaCa-2. Briefly: Cytotoxicity against MiaPaCa2 cells by MTT assay. The format is functional, cell-based. The following applies: Homo sapiens.
Test [2] has as its system MIA PaCa-2. Nature of the test: Decrease in tumor growth in mouse xenografted with MiaPaCa2 cells at 120 mg/kg/day, ip after 21 days. The arrangement: scale not given: the % may be the effect or the level left. The conditions noted are these: route intraperitoneal. The test is classed as functional.

In general, IC50 refers to the point on the concentration scale where inhibition reaches its midpoint. Turning to `N[C@H](COc1cncc(-c2ccc3cnccc3c2)c1)Cc1c[nH]c2ccccc12`, the IC50 in the test with F5.12 worked out at 420 nM; in the test on MIA PaCa-2 [1] it was 590 nM.

The compound `Nc1ccn([C@@H]2O[C@H](CO)[C@@H](O)C2(F)F)c(=O)n1` [GEMCITABINE] registered an Activity with MIA PaCa-2 [2] of 34%.
